Results reported in article PMC8395767, “Worsening of the Toxic Effects of (±)Cis-4,4′-DMAR Following Its Co-Administration with (±)Trans-4,4′-DMAR: Neuro-Behavioural, Physiological, Immunohistochemical and Metabolic Studies in Mice” (International Journal of Molecular Sciences, 2021).

How the values were obtained:
[1] = recent pharmacokinetic study; cited from earlier work
[2] = tested on: 3-nitrotyrosine (NT); assay: Immunohistochemistry, frontal cortex: NT; format: in vivo, mice; settings: vs control
From the text: (§1) Following the acute death or the sacrifice of the animals (after 5-h observation period by dislocation of the spine), brains were taken. These were fixed in 4% buffered formalin and then sampled and incorporated into the paraffin (Leica ASP300 processor, Histoline TEC2900 incorporator; Leica Microsystems Srl, Buccinasco, Milano, Italy). Subsequently, the cut (performed with the Leica HistoCore autocut microtome; Leica Microsystems Srl, Buccinasco, Milano, Italy) was designed to create sections with a thickness of 5 µm for each sample.
(§2) On 5-µm-thick paraffined […] sections, we evaluated the expression of a panel of markers: heat shock proteins (HSP27, HSP70, HSP90), SMAC/DIABLO, NF-kB, iNOS, NOX-2, NT, 8-OHDG.
(§3) We used a detection system composed of a biotinylated secondary antibody and HRP-conjugated streptavidin (4plus HRP Universal Detection, Biocare Medical). 3′-,3Diaminobenzidine (DAB) and H2O2 (Betazoid DAB Chromogen Kit, Biocare Medical, Concord, CA, USA) were used as chromogen/substrate. The subsequent counterstaining with haematoxylin–eosin allowed the visualization of cell morphology and nuclei. Once this procedure was completed, the slides were mounted and observed under optical microscope. In the pictures (sections of the frontal cortex; Figure 3, Figure 4 and Figure 5) to evaluate the variation in the expression of markers (Smac, NOX2, iNOS, 8-OHdG, NT, HSP27, HSP70, HSP90) following treatments, the change in intensity of brown colour (staining of the immunohistochemical technique) in the control and treated tissue was measured. Quantification of Smac, NOX2, iNOS, 8-OHdG, NT, HSP27, HSP70 and HSP90 positive-stained areas was performed by the ImageJ software (imagej.nih.gov/ij/ Accessed date 12 May 2020). One image for each animal of the different experimental groups was processed. Positivity was expressed as an extension of the stained analysed area.
Sweating and salivation were expressed as frequency (e.g., % of animals that developed symptoms); psychomotor agitation was expressed as frequency (% of animals) and duration (total time in mins). Core temperature values were expressed as the difference between control temperature (before injection) and temperature following drug administration (Δ°C). Aggressiveness was expressed as frequency (% of animals which become aggressive) and score (number of bites). Convulsions were expressed as frequency (% of animals that developed seizure), episodes (e.g., number of seizure events), latency of first episode (sec.) and duration of each episode (sec.). Lethality was expressed as frequency (% of animals that died during the observation period (5 h) or during the following 24 h). The statistical analysis of the effects of the individual substances in different concentrations were performed using a one-way ANOVA followed by a Bonferroni test for multiple comparisons. A Student’s t-test was used to determine statistical significance (p < 0.05) between two groups. Regarding immunohistochemical analysis, positivity was expressed as the extension of stained analysed area. Results were expressed as means ± mean standard error (SEM). Data were analysed by one-way analysis of variance (ANOVA), followed by Tukey’s post-hoc test. For all tests, a p value of <0.05 was considered statistically significant. All statistical analyses were performed using GraphPad Prism 8 software for Windows (La Jolla, CA, USA).

[3] = tested on: iNOS; assay: Immunohistochemistry, frontal cortex: iNOS; format: in vivo, mice
From the text: as §1, §2
as §3, with “The subsequent counterstaining with haematoxylin–eosin allowed the visualization of cell morphology and nuclei. Once this procedure was completed, the slides were mounted and observed under optical microscope.” left out, “One image for each animal of the different experimental groups was processed.” left out
(§4) Sweating and salivation were expressed as frequency (e.g., % of animals that developed symptoms); psychomotor agitation was expressed as frequency (% of animals) and duration (total time in mins). Core temperature values were expressed as the difference between control temperature (before injection) and temperature following drug administration (Δ°C). Aggressiveness was expressed as frequency (% of animals which become aggressive) and score (number of bites). […]

[4] = Excretion studies on urine samples (LC-MS/MS); format: in vivo, mice
Experimental: To study the possible metabolic interaction between cis and trans isomers, we chose to evaluate urinary excretion and metabolic profile of 4,4′-DMAR, as this allowed us to study and correlate physiological and neuro-behavioural responses in the same individual. For the in vivo studies, three different groups of mice were selected. To the first group, a dose of 10 mg/kg of cis-4,4′-DMAR was administered. To the second group, a dose of 10 mg/kg of both cis and trans-4,4′-DMAR was administered. The third group was selected for the collection of urine blank samples. Urine samples were collected in the range of 0–6 h after 4,4′-DMAR or vehicle were intraperitoneally injected.
Urine samples were treated and analysed through a protocol already used by our group for the analysis of the excretion of stimulant drugs in mice. Briefly, our protocol allowed the conversion of conjugated metabolites (i.e., sulfo- and glucorono-conjugates) to phase I metabolites after two hydrolysis steps. […] The residue was reconstituted with 50 μL of mobile phase and analysed with a targeted LC-MS/MS technique. In details, samples were analysed using an Agilent 1200 series HPLC instrument equipped with a SUPELCO Discovery C18 column (15 cm × 2.1 mm × 5 µm) coupled with an API4000 QqQ mass spectrometer (Sciex, 500 Old Connecticut Path, Framingham, MA, USA). […]

[5] = tested on: 8-OHdG; assay: Immunohistochemistry, frontal cortex: 8-OHdG; format: in vivo, mice; settings: for Immunoreactivity of 8-OHdG in the frontal cortex: 30 and 60 mg/kg, vs control
From the text: as §1, §2
as §3, with “The subsequent counterstaining with haematoxylin–eosin allowed the visualization of cell morphology and nuclei. Once this procedure was completed, the slides were mounted and observed under optical microscope.” left out, “One image for each animal of the different experimental groups was processed.” left out
as §4

[6] = tested on: Smac/DIABLO; assay: Immunohistochemistry, frontal cortex: Smac/DIABLO; format: in vivo, mice
From the text: as §1, §2
as §3, with “The subsequent counterstaining with haematoxylin–eosin allowed the visualization of cell morphology and nuclei. Once this procedure was completed, the slides were mounted and observed under optical microscope.” left out, “One image for each animal of the different experimental groups was processed.” left out
as §4

| SMILES | Metabolism and excretion in the mouse urine [1] | Immunoreactivity of 3-nitrotyrosine (NT) in the frontal cortex ([2]; 10 mg/kg) | Immunoreactivity of 3-nitrotyrosine (NT) in the frontal cortex ([2]; 30 mg/kg) | Immunoreactivity of 3-nitrotyrosine (NT) in the frontal cortex ([2]; 30 mg/kg, listed as (±)cis) | Immunoreactivity of 3-nitrotyrosine (NT) in the frontal cortex ([2]; 60 mg/kg) | Immunoreactivity of iNOS in the frontal cortex ([3]; 60 mg/kg, vs control) | Immunoreactivity of iNOS in the frontal cortex ([3]; 60 mg/kg, vs control, listed as (±)cis) | Urinary excretion of the parent compound (normalised to the sum of 4,4′-DMAR and its metabolites, Figure 7B) ([4]; co-administered with (±)trans-4,4′-DMAR 10 mg/kg, vs cis alone) | Immunoreactivity of 8-OHdG in the frontal cortex [5] | Immunoreactivity of 8-OHdG in the frontal cortex ([5]; listed as (±)cis) | Immunoreactivity of Smac/DIABLO in the frontal cortex ([6]; 30 and 60 mg/kg, vs control) | Immunoreactivity of Smac/DIABLO in the frontal cortex ([6]; 30 and 60 mg/kg, vs control, listed as (±)cis) | Immunoreactivity of iNOS in the frontal cortex ([3]; 30 mg/kg alone) | Phase I/II metabolism ([4]; mice urine) | Expression of 8-OHdG in the frontal cortex ([5]; 30 mg/kg alone) | Immunoreactivity of Smac/DIABLO in the frontal cortex ([6]; 30 mg/kg alone) |
| --- | --- | --- | --- | --- | --- | --- | --- | --- | --- | --- | --- | --- | --- | --- | --- | --- |
| Cc1ccc(C2OC(N)=NC2C)cc1 (stereo not drawn) [cis-4,4’-DMAR, 4-methyl-5-(4-methylphenyl)-4,5-dihydrooxazol-2-amine] | metabolised and excreted | reduced | increased | statistically significant increase | did not affect | increased | large increase | increase | increased | overexpressed | increased | significant increase |  |  |  |  |
| Cc1ccc(C2OC(N)=NC2C)cc1 (stereo not drawn) [trans-4,4’-DMAR, 4-methyl-5-(4-methylphenyl)-4,5-dihydrooxazol-2-amine] | not metabolised |  | ineffective |  |  |  |  |  |  |  |  |  | ineffective | did not exhibit | ineffective | ineffective |
